Laboratory results as given in PubChem BioAssay AID256 (DTP/NCI, 2004).
“And” between values parts separate entries of the source, which are not always exact repeats. Equal values may be shown once. Toxic doses and inconclusive results are not listed.

Test system: CD2F1 mice, L1210 leukemia ip, survival T/C
Assay: NCI In Vivo Anticancer Drug Screen. Data for tumor model L1210 Leukemia (intraperitoneal) in CD2F1 (CDF1) mice
Details: endpoint: mean survival time, higher = longer survival
Outline: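 Each value reflects a quotient of treated over vehicle control outcomes in mice with a transplanted tumor.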

[1] = dose: 100.0 mg/kg/injection, schedule: Q04DX003 (ip), vehicle: saline with Tween-80
[2] = dose: 100.0 mg/kg/injection, schedule: Q04DX002 (ip), vehicle: saline with Tween-80
[3] = dose: 200.0 mg/kg/injection, schedule: Q04DX002 (ip), vehicle: saline with Tween-80
[4] = dose: 400.0 mg/kg/injection, schedule: Q04DX002 (ip), vehicle: saline with Tween-80
[5] = dose: 100.0 mg/kg/injection, schedule: Q01DX009 (ip), vehicle: saline with Tween-80
[6] = dose: 200.0 mg/kg/injection, schedule: Q01DX009 (ip), vehicle: saline with Tween-80
[7] = dose: 200.0 mg/kg/injection, schedule: Q04DX003 (ip), vehicle: saline with Tween-80
[8] = dose: 400.0 mg/kg/injection, schedule: Q04DX003 (ip), vehicle: saline with Tween-80
[9] = dose: 100.0 mg/kg/injection, schedule: Q01DX001 (ip), vehicle: saline
[10] = dose: 200.0 mg/kg/injection, schedule: Q01DX001 (ip), vehicle: saline
[11] = dose: 400.0 mg/kg/injection, schedule: Q01DX001 (ip), vehicle: saline
[12] = dose: 100.0 mg/kg/injection, schedule: Q04DX003 (ip), vehicle: saline
[13] = dose: 200.0 mg/kg/injection, schedule: Q04DX003 (ip), vehicle: saline

## C[n+]1ccc(Nc2ccc(NC(=O)c3ccc(Nc4cc[n+](C)c5ccc([N+](=O)[O-])cc45)cc3[N+](=O)[O-])cc2)cc1
dose: 79.0 mg/kg/injection, schedule: Q04DX003 (ip), vehicle: saline with Tween-80
  T/C: 122 % of control
[1]
  T/C: 113 % of control
dose: 178.0 mg/kg/injection, schedule: Q04DX003 (ip), vehicle: saline with Tween-80
  T/C: 152 % of control
dose: 266.0 mg/kg/injection, schedule: Q04DX003 (ip), vehicle: saline with Tween-80
  T/C: 177 % of control and 187 % of control

## O=C(CCl)NCCCNC(=O)CCl
[1]
  T/C: 105 % of control

## N#CCCC#N (tested in a mixture with another compound)
dose: 50.0 mg/kg/injection, schedule: Q04DX002 (ip), vehicle: saline with Tween-80
  T/C: 96 % of control and 100 % of control
[2]
  T/C: 96 % of control and 107 % of control
[3]
  T/C: 100 % of control and 96 % of control
[4]
  T/C: 92 % of control and 100 % of control

## CCCCOC(=O)c1ccccc1C(=O)O.[Cu+2]
dose: 6.25 mg/kg/injection, schedule: Q01DX001 (ip), vehicle: saline with Tween-80
  T/C: 100 % of control
dose: 12.5 mg/kg/injection, schedule: Q01DX001 (ip), vehicle: saline with Tween-80
  T/C: 96 % of control
dose: 25.0 mg/kg/injection, schedule: Q01DX001 (ip), vehicle: saline with Tween-80
  T/C: 103 % of control

## O=C1C(Cl)=CC(=NS(=O)(=O)c2ccccc2)C=C1Cl
dose: 6.25 mg/kg/injection, schedule: Q04DX003 (ip), vehicle: saline with Tween-80
  T/C: 100 % of control
dose: 12.5 mg/kg/injection, schedule: Q04DX003 (ip), vehicle: saline with Tween-80
  T/C: 94 % of control
dose: 25.0 mg/kg/injection, schedule: Q04DX003 (ip), vehicle: saline with Tween-80
  T/C: 103 % of control

## CCC(C(=N)C#N)[N+](=O)[O-] (stereo not given)
dose: 100.0 mg/kg/injection, schedule: Q04DX002 (ip), vehicle: saline
  T/C: 91 % of control
dose: 200.0 mg/kg/injection, schedule: Q04DX002 (ip), vehicle: saline
  T/C: 95 % of control
dose: 400.0 mg/kg/injection, schedule: Q04DX002 (ip), vehicle: saline
  T/C: 91 % of control

## c1ccc(P(c2ccccc2)c2ccccc2)cc1
dose: 50.0 mg/kg/injection, schedule: Q01DX009 (ip), vehicle: saline with Tween-80
  T/C: 96 % of control
[5]
  T/C: 100 % of control
[1]
  T/C: 100 % of control
[6]
  T/C: 98 % of control
[7]
  T/C: 100 % of control
[8]
  T/C: 93 % of control

## COC(=O)C#CC(N)=O
dose: 1.25 mg/kg/injection, schedule: Q01DX009 (ip), vehicle: saline sonified
  T/C: 106 % of control
dose: 2.5 mg/kg/injection, schedule: Q01DX009 (ip), vehicle: saline sonified
  T/C: 109 % of control
dose: 5.0 mg/kg/injection, schedule: Q01DX009 (ip), vehicle: saline sonified
  T/C: 113 % of control
dose: 5.0 mg/kg/injection, schedule: Q04DX003 (ip), vehicle: saline sonified
  T/C: 110 % of control

## O=C(CCl)c1cccnc1C(=O)O
[1]
  T/C: 98 % of control

## COc1cc2c(cc1OC)C(Cc1ccccc1NC(=O)c1ccc(C(=O)Nc3ccccc3CC3c4cc(OC)c(OC)cc4CCN3C)cc1)N(C)CC2 (stereo not given)
[9]
  T/C: 97 % of control
[10]
  T/C: 94 % of control
[11]
  T/C: 91 % of control

## O=C(Cl)C12CC3CC(CC(C3)C1)C2
dose: 12.5 mg/kg/injection, schedule: Q01DX009 (ip), vehicle: other
  T/C: 94 % of control
dose: 25.0 mg/kg/injection, schedule: Q01DX009 (ip), vehicle: other
  T/C: 94 % of control
dose: 50.0 mg/kg/injection, schedule: Q01DX009 (ip), vehicle: other
  T/C: 91 % of control
dose: 100.0 mg/kg/injection, schedule: Q01DX009 (ip), vehicle: other
  T/C: 91 % of control

## O=C(O)C1CC1.[Ag]
dose: 0.78 mg/kg/injection, schedule: Q01DX009 (ip), vehicle: water
  T/C: 100 % of control
dose: 1.56 mg/kg/injection, schedule: Q01DX009 (ip), vehicle: water
  T/C: 100 % of control
dose: 3.12 mg/kg/injection, schedule: Q01DX009 (ip), vehicle: water
  T/C: 96 % of control
dose: 6.25 mg/kg/injection, schedule: Q01DX009 (ip), vehicle: water
  T/C: 102 % of control
dose: 12.5 mg/kg/injection, schedule: Q01DX009 (ip), vehicle: water
  T/C: 102 % of control
dose: 25.0 mg/kg/injection, schedule: Q01DX009 (ip), vehicle: water
  T/C: 104 % of control
[12]
  T/C: 93 % of control
[13]
  T/C: 93 % of control

## Cc1cc(C)c(C(=O)O)c(C(=O)O)c1
dose: 100.0 mg/kg/injection, schedule: Q01DX001 (ip), vehicle: Klucel (hydroxypropylcellulose) (HPC)
  T/C: 106 % of control
dose: 200.0 mg/kg/injection, schedule: Q01DX001 (ip), vehicle: Klucel (hydroxypropylcellulose) (HPC)
  T/C: 95 % of control
dose: 400.0 mg/kg/injection, schedule: Q01DX001 (ip), vehicle: Klucel (hydroxypropylcellulose) (HPC)
  T/C: 106 % of control

## CCCCCCCCOc1ccc(Cl)cc1Cl
[2]
  T/C: 96 % of control
[3]
  T/C: 104 % of control
[4]
  T/C: 104 % of control

## NNC(=O)Nc1nn[nH]n1
[2]
  T/C: 97 % of control
[3]
  T/C: 97 % of control
[4]
  T/C: 94 % of control

## COc1ccc(C(=O)CC(=O)Nc2ccc([N+](=O)[O-])cc2)cc1
dose: 100.0 mg/kg/injection, schedule: Q01DX009 (ip), vehicle: Klucel (hydroxypropylcellulose) (HPC)
  T/C: 98 % of control
[1]
  T/C: 107 % of control
dose: 200.0 mg/kg/injection, schedule: Q01DX009 (ip), vehicle: Klucel (hydroxypropylcellulose) (HPC)
  T/C: 97 % of control
[7]
  T/C: 102 % of control
dose: 400.0 mg/kg/injection, schedule: Q01DX009 (ip), vehicle: Klucel (hydroxypropylcellulose) (HPC)
  T/C: 97 % of control
[8]
  T/C: 101 % of control

## Cc1ccc2nc(C(F)(F)F)cc(NN)c2c1
[5]
  T/C: 100 % of control
[1]
  T/C: 101 % of control
[6]
  T/C: 94 % of control
[7]
  T/C: 96 % of control
dose: 400.0 mg/kg/injection, schedule: Q01DX009 (ip), vehicle: saline with Tween-80
  T/C: 100 % of control
[8]
  T/C: 98 % of control

## Cn1c(=O)[nH]c2c(nc(-c3ccccc3)n2C)c1=O
dose: 12.5 mg/kg/injection, schedule: Q01DX005 (ip), vehicle: other
  T/C: 87 % of control
dose: 25.0 mg/kg/injection, schedule: Q01DX005 (ip), vehicle: other
  T/C: 96 % of control
dose: 50.0 mg/kg/injection, schedule: Q01DX005 (ip), vehicle: other
  T/C: 89 % of control
dose: 100.0 mg/kg/injection, schedule: Q01DX005 (ip), vehicle: other
  T/C: 94 % of control

## C1C[N-]CC[N-]CC[N-]CC[N-]1.[Cl][Rh][Cl]
dose: 1.56 mg/kg/injection, schedule: Q01DX009 (ip), vehicle: saline
  T/C: 100 % of control
dose: 3.13 mg/kg/injection, schedule: Q01DX009 (ip), vehicle: saline
  T/C: 102 % of control
dose: 6.25 mg/kg/injection, schedule: Q01DX009 (ip), vehicle: saline
  T/C: 100 % of control
dose: 12.5 mg/kg/injection, schedule: Q01DX009 (ip), vehicle: saline
  T/C: 98 % of control and 108 % of control

## N#CC(=C=[N-])[n+]1ccccc1
dose: 12.5 mg/kg/injection, schedule: Q04DX003 (ip), vehicle: Klucel (hydroxypropylcellulose) (HPC)
  T/C: 98 % of control
dose: 25.0 mg/kg/injection, schedule: Q04DX003 (ip), vehicle: Klucel (hydroxypropylcellulose) (HPC)
  T/C: 100 % of control

## Cc1ccc(C2=C(c3ccc(C)cc3)CS(=O)(=O)C2)cc1
dose: 100.0 mg/kg/injection, schedule: Q01DX001 (ip), vehicle: saline with Tween-80
  T/C: 92 % of control
dose: 200.0 mg/kg/injection, schedule: Q01DX001 (ip), vehicle: saline with Tween-80
  T/C: 93 % of control
dose: 400.0 mg/kg/injection, schedule: Q01DX001 (ip), vehicle: saline with Tween-80
  T/C: 92 % of control
dose: 800.0 mg/kg/injection, schedule: Q01DX001 (ip), vehicle: saline with Tween-80
  T/C: 92 % of control

## OCC(O)C1OC(OC2CCCCC2)C(O)C(O)C1O (stereo not given)
[9]
  T/C: 95 % of control
[10]
  T/C: 101 % of control
[11]
  T/C: 96 % of control

## CC1COCC(C)N1N=Nc1ccccc1-c1nc(N)c2ccccc2n1 (stereo not given)
dose: 100.0 mg/kg/injection, schedule: Q04DX002 (ip), vehicle: Klucel (hydroxypropylcellulose) (HPC)
  T/C: 88 % of control
dose: 200.0 mg/kg/injection, schedule: Q04DX002 (ip), vehicle: Klucel (hydroxypropylcellulose) (HPC)
  T/C: 92 % of control
dose: 400.0 mg/kg/injection, schedule: Q04DX002 (ip), vehicle: Klucel (hydroxypropylcellulose) (HPC)
  T/C: 98 % of control

## CC(=O)NCC(C)OC(C)=O (stereo not given)
[12]
  T/C: 101 % of control
[13]
  T/C: 97 % of control
dose: 400.0 mg/kg/injection, schedule: Q04DX003 (ip), vehicle: saline
  T/C: 98 % of control

## COc1cc(C(=O)N(C(C)C)C2CCCCC2)cc(OC)c1OC
[1]
  T/C: 104 % of control
[7]
  T/C: 96 % of control
